Data on five molecules can be found in patent US5382430A, “Method for the stimulation of the immune system of an animal by use of limulus test-positive plant glycolipid” (priority 1989, dated 1995).

Assay [1] relates to TNF. Conditions: prior art statement; cited from earlier work.
For assay [2], the system named is parietal bones of fowl's embryo. As to the kind of experiment: Osteogenesis stimulation: osteoclast activation test, 45Ca leakage (Table 9). Conditions: 1 unit/ml. How it is done:
Stimulation of Osteogenesis
This stimulation was confirmed by an osteolast activation test.
Osteoclast cells are those in charge of absorbing bony tissue which destroy old bones in said tissue. […] As a result, the osteogenesis is presumed to be stimulated.
In the osteoclast activation test, parietal bones of fowl's embryo are used as experimental samples. That is, the parietal bones of fowl's embryo are labelled with ^45 Ca, and are cultured in a medium containing a medicine candidate (treated group) or in a said candidate-free medium (control group), and thereafter the quantity of the ^45 Ca remaining in the bones and that of the ^45 Ca leaked into the medium during culture are determined. The ^45 Ca leakage rates in both tile treated and control groups are calculated according to the following equation:
^45 Ca leakage rate=(Quantity of ^45 Ca leaked)/(Quantity of
remaining ^45 Ca+Quantity of ^45 Ca leaked)
The effect of the candidate is expressed by the following T/C rate:
T/C rate=(Quantity of ^45 Ca leaked in the treated group)/(Quantity of
^45 Ca leaked in the control group) […]
4) The medium (each, 250 μl) was added to 4.5 ml of ACSII scintillator (Amersham Co. In U.K.), and the counting was made on the basis of liquid scintillation to determine the quantity of the 45Ca leaked into the medium. […]

For the molecule `CC(C)C[C@H](NC(=O)[C@@H](O)[C@H](N)Cc1ccccc1)C(=O)O` [Bestatin, ubenimex], the TNF productivity entry in assay [1] is recorded as “no TNF productivity”.
With lentinan, in assay [1], the TNF productivity result is reported as “no TNF productivity”.
Consider sizofiran [Sonifilan], for which the TNF productivity entry in assay [1] is recorded as “no TNF productivity”.
For polysaccharide K [PSK], the TNF productivity entry in assay [1] was “no TNF productivity”.

B1: parathyroid hormone (protein, UniProt P01270 32-115, looked up)
Parathyroid hormone: SVSEIQLMHNLGKHLNSMERVEWLRKKLQDVHNFVALGAPLAPRDAGSQRPRKKEDNVLVESHEKSLGEADKADVNVLTKAKSQ
notes: Already known parathyroid hormone which is a bony tissue absorbance hormone
With B1, in assay [2], the “45Ca leakage, Treated T” value was determined as 4.46 and the T/C rate is recorded as 1.22.
